From EPA's ToxValDB 9.5 come the findings set out here.

Molecules are shown by their SMILES. Converted amounts (≈) assume the structure as drawn. “And” between values parts separate entries of the source, which are not always exact repeats. Equal entries are not always repeated.

The subject of one data set is Oryctolagus sp. The conditions noted are these: for LD50: acute.
The subject of a further data set is Mus musculus. The conditions noted are these: for LD50 / LC50: acute.
A further data set deals with Rattus norvegicus. The conditions noted are these: for LC50 / LD50: acute.
The mark [1] stands for this setting: chronic, duration: 4 months, inhalation.
Where [2] appears, read: reproduction developmental, duration: 5 days, inhalation, CD1, generation: F0.
Setting [3] is: chronic, duration: 693 days, oral, diet, Sprague-Dawley.
Where [4] appears, read: reproduction developmental, duration: 94 days, oral, diet, Sprague-Dawley, generation: F0.
Where [5] appears, read: subchronic, duration: 13 weeks, oral, diet, Sprague-Dawley.
[6] abbreviates: subchronic, duration: 13 weeks, oral, diet, ICR.
The mark [7] stands for this setting: subchronic, duration: 13 weeks, oral, diet, Wistar.

By LOAEL is commonly meant the lowest dose or exposure tested at which an adverse effect was seen. The term NOAEL denotes the highest dose or exposure tested at which no adverse effect was seen. The LD50 is the dose at which mortality reaches 50%. A low value points to greater toxicity. In the data set with Oryctolagus sp. (setting [1]), `C1CCNCC1` [Piperidine] had an LOAEL of 0.01 mg/L and an NOAEL of 0.002 mg/L. The 50% lethal dose (LD50) in the data set with Mus musculus (oral, DD) was 536 mg/kg and 633 mg/kg. In the data set with Rattus norvegicus (inhalation), this compound registered an LC50 above 6970 mg/m3. Further, in the data set with Rattus norvegicus (setting [1]), the LOAEL amounted to 0.01 mg/L and the NOAEL is 0.002 mg/L. The “NOAEL (% diet)” value with Rattus norvegicus (chronic, duration: 50 weeks, oral, drinking water, Sprague-Dawley) stood at 0.09.
As to `c1ccc(OP(Oc2ccccc2)Oc2ccccc2)cc1` [Triphenyl phosphite], the LD50 in the data set with Oryctolagus sp. (dermal, New Zealand) is ≥ 2000 mg/kg and ≤ 5000 mg/kg; with Rattus norvegicus (oral, gavage, Sherman Wistar), 1590 mg/kg. In the data set with Rattus norvegicus (Inhalation, Sherman Wistar), this compound showed an LC50 above 6.7 µg/mL. The NOAEL in the data set on Rattus norvegicus (reproduction developmental, duration: 16 weeks, oral, gavage, Sprague-Dawley, generation: F0) is 15 mg/kg-day; with Rattus norvegicus (reproduction developmental, duration: 16 weeks, oral, gavage, Sprague-Dawley, generation: F1) it was 15 mg/kg-day.
For `O=c1n(CC2CO2)c(=O)n(CC2CO2)c(=O)n1CC1CO1` (configuration not stated) [Tris(2,3-epoxypropyl)isocyanurate], the LC50 was 2 µg/mL (≈ 6.73 µM) with Mus musculus (inhalation, particle, CD1); above 300 mg/m3 in the data set with Rattus norvegicus (Inhalation, TIF: RAIF (SPF)); 650 mg/m3 with Rattus norvegicus (Inhalation, Tif.RAIF (SPF)); above 4.16 µg/mL in the data set on Rattus norvegicus (inhalation, particle, Wistar). For the same compound, the LOAEL was above 8 mg/m3 in the data set on Mus musculus (setting [2]), above 100 mg/kg-day in the data set on Rattus norvegicus (setting [3]), above 100 mg/kg-day in the data set on Rattus norvegicus (setting [4]) and above 100 mg/kg-day with Rattus norvegicus (setting [5]). Moreover, the NOAEL in the data set with Mus musculus (setting [2]) is above 8 mg/m3; in the data set on Rattus norvegicus (setting [3]) it was 100 mg/kg-day; in the data set on Rattus norvegicus (setting [4]) it was 30 mg/kg-day; with Rattus norvegicus (setting [5]), 30 mg/kg-day. The LD50 is above 3100 mg/kg with Rattus norvegicus (dermal, Sprague-Dawley); above 2000 mg/kg in the data set with Rattus norvegicus (dermal, semiocclusive, Sprague-Dawley); above 2000 mg/kg in the data set on Rattus norvegicus (dermal, semiocclusive, TIF. RAIF (SPF)); 447 mg/kg in the data set on Rattus norvegicus (oral, gavage, Sprague-Dawley); 305 mg/kg in the data set with Rattus norvegicus (oral, gavage, TIF: RAIF (SPF)).
For the compound `NC(CO)(CO)CO` [Tromethamine], the LD50 with Mus musculus (dermal) was above 1000 mg/kg; in the data set with Mus musculus (injection, Intraperitoneal) it was 3350 mg/kg; in the data set with Mus musculus (injection, intravenous), 6100 mg/kg; in the data set on Mus musculus (oral, gavage, Swiss), above 3000 mg/kg; with Rattus norvegicus (dermal), above 1000 mg/kg; in the data set on Rattus norvegicus (injection, intravenous), 6000 mg/kg. Besides, the LD50 with Rattus norvegicus (oral, gavage, Wistar) was above 3000 mg/kg. Also, the NOAEL in the data set with Rattus norvegicus (reproduction developmental, duration: 29 days, oral, gavage, Crl:CD(SD), generation: F0) came out at 1000 mg/kg-day; with Rattus norvegicus (reproduction developmental, duration: 29 days, oral, gavage, Crl:CD(SD), generation: F1), 1000 mg/kg-day; in the data set with Rattus norvegicus (reproduction developmental, duration: 29 days, oral, gavage, generation: F0), 1000 mg/kg-day; in the data set with Rattus norvegicus (reproduction developmental, duration: 29 days, oral, gavage, generation: F1), 1000 mg/kg-day; in the data set with Rattus norvegicus (short-term, duration: 20 days, injection, intravenous, Sprague-Dawley), 500 mg/kg-day.
Take `C=CF` [Vinyl fluoride]: the LC50 with Mus musculus (inhalation) came to 1.3e+06 mg/m3. Further, the LOAEL with Mus musculus (subchronic, duration: 90 days, inhalation, Crl:CD-1 (ICR) BR) was determined as 377 mg/m3; with Rattus norvegicus (subchronic, duration: 90 days, inhalation, Crl:CDABR), 377 mg/m3.
As to `CCCCC(CC)C(=O)[O-].CCCCC(CC)C(=O)[O-].[Zn+2]` (configuration not stated) [Zinc 2-ethylhexoate], the LD50 with Oryctolagus sp. (dermal, occlusive) is above 5000 mg/kg; in the data set on Rattus norvegicus (oral), ≥ 3550 mg/kg and ≤ 3700 mg/kg; in the data set with Rattus norvegicus (oral, gavage), ≥ 3550 mg/kg and ≤ 3700 mg/kg. Besides, the LC50 in the data set on Rattus norvegicus (Inhalation) was above 23.2 µg/mL. This compound also had an NOAEL in the data set with Rattus norvegicus (short-term, duration: 7 days, oral, gavage, Sprague-Dawley) of 1000 mg/kg-day.
As to `[Cl][Zn][Cl]` [Zinc chloride], the LD50 in the data set with Mus musculus (oral, gavage, Swiss) is 1260 mg/kg and 605 mg/kg. The NOAEL with Mus musculus (developmental, duration: 18 days, injection, Intraperitoneal, CF1) came to 12.5 mg/kg-day; in the data set with Mus musculus (reproduction developmental, duration: 18 days, injection, Intraperitoneal, F, CF1), 12.5 mg/kg-day; in the data set with Mus musculus (setting [6]), 591 mg/kg-day; with Rattus norvegicus (setting [7]) it was 288 mg/kg-day. Also, the lowest observed adverse effect level (LOAEL) with Mus musculus (setting [6]) turned out to be 5910 mg/kg-day; in the data set with Rattus norvegicus (short-term, duration: 4 weeks, oral, drinking water, Wistar), 12 mg/kg-day; in the data set on Rattus norvegicus (setting [7]), 2880 mg/kg-day.
Consider `O=C([O-])c1ccc2ccccc2c1.O=C([O-])c1ccc2ccccc2c1.[Zn+2]` [Zinc naphthenate], for which the LOAEL in the data set on Oryctolagus sp. (subchronic, duration: 90 days, dermal, semiocclusive, New Zealand) is 1000 mg/kg-day; with Rattus norvegicus (developmental, duration: 10 days, oral, gavage, Sprague-Dawley), 938 mg/kg-day; in the data set with Rattus norvegicus (reproduction developmental, duration: 10 days, oral, gavage, F, Sprague-Dawley), 500 mg/kg-day and 938 mg/kg-day. Moreover, the LD50 in the data set with Rattus norvegicus (oral, gavage) was above 6000 mg/kg; in the data set with Rattus norvegicus (oral, gavage, Sprague-Dawley), above 5000 mg/kg.
